Experiment [1] concerns the target Thyroid hormone receptor (Homo sapiens) (UniProt P10827+P10828). Description: Inhibition of thyroid hormone receptor-mediated PEPCK gene transcription in thyroid hormone treated human HepG2 cells by RT-PCR analysis. Type of experiment: cell-based.
A further experiment deals with HepG2. The experiment in a line: Cytotoxicity against human HepG2 cells assessed as ATP level after 72 hrs by CellTiter-Glo assay. The conditions noted are these: HepG2, 72 h. Type of experiment: cell-based. For orientation: Cellular ATP, detected with luciferase, serves as a proxy for viable cell number.
The next experiment concerns the target T1, Vitamin D3 receptor (Homo sapiens, UniProt P11473).
T1 sequence (P11473 whole entry): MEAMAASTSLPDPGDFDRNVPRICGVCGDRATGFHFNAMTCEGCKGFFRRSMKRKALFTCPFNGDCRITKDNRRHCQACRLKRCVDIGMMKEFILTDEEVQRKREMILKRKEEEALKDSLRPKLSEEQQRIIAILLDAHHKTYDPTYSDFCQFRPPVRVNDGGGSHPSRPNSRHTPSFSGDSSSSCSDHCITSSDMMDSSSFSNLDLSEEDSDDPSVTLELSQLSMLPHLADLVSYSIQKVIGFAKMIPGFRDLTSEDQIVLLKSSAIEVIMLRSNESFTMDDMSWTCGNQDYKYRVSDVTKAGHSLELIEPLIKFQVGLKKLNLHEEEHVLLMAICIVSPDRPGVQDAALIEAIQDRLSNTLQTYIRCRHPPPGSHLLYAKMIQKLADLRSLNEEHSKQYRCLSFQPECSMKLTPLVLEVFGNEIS
The experiment in a line: Inhibition of VDR (unknown origin) interaction to SRC2-3 peptide by fluorescence polarization assay. (In fluorescence polarisation assays a small probe gives low polarisation when free and higher when bound to something large.)

Experiment [2] has as its target T2, Thyroid hormone receptor alpha (Homo sapiens, UniProt P10827).
T2 sequence (P10827 whole entry): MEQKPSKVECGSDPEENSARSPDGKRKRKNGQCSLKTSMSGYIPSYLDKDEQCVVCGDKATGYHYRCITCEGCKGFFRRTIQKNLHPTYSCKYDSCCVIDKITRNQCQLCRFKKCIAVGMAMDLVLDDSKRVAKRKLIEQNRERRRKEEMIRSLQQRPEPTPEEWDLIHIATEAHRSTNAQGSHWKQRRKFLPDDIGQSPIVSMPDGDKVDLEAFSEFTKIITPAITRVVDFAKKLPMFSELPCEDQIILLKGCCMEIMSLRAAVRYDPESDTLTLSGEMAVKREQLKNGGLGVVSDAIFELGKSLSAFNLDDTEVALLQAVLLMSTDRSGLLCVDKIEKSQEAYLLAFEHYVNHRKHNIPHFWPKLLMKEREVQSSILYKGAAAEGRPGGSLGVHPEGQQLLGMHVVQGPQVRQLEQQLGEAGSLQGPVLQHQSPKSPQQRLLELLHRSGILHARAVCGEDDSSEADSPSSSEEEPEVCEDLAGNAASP
The experiment in a line: Inhibition of TRalpha-LBD (unknown origin) interaction to texas red-labeled SRC2-2 peptide by fluorescence polarization assay.

Experiment [3] addresses T3, Thyroid hormone receptor beta (Homo sapiens, UniProt P10828).
T3 sequence (P10828 whole entry): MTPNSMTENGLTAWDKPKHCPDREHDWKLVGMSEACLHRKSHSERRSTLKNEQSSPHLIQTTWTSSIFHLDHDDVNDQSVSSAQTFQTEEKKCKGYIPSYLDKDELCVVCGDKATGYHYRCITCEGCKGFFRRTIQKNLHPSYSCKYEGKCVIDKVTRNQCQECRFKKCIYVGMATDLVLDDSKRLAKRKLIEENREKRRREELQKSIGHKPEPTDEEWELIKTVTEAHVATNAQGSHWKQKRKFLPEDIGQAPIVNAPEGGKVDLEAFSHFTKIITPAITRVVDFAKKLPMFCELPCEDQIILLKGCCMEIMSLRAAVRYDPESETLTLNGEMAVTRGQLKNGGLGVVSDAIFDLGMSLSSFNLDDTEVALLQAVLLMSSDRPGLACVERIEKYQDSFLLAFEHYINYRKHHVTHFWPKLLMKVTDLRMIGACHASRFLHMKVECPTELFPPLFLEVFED
The experiment in a line: Inhibition of TRbeta-LBD (unknown origin) interaction to texas red-labeled SRC2-2 peptide by fluorescence polarization assay.

For orientation: EC50 means the concentration at which the effect is half-maximal. As a reminder, the IC50 is the point on the concentration scale where inhibition reaches its midpoint. Lower therefore signals greater potency.

On to `CS(=O)(=O)c1ccc(C(=O)NCC(=O)N(Cc2ccccc2)Cc2ccccc2)cc1[N+](=O)[O-]`, for which the inhibition entry in experiment [1] is “Dose-dependent effect”. Besides, the EC50 with HepG2 worked out at 11.9 µM. Also, the IC50 against Vitamin D3 receptor is > 60 µM; in experiment [2], 1.7 µM; in experiment [3], 3.6 µM.
Take `CN(C(=O)CNC(=O)c1ccc(S(C)(=O)=O)c([N+](=O)[O-])c1)c1ccccc1`: in the experiment on HepG2, the EC50 was > 27 µM. Further, the IC50 was > 60 µM on Vitamin D3 receptor, 4.2 µM in experiment [2] and 5.8 µM in experiment [3].
For `CN(Cc1ccccc1F)C(=O)CCCNC(=O)c1ccc(S(C)(=O)=O)c([N+](=O)[O-])c1`, in that order: > 27 µM, > 60 µM, > 60 µM and > 60 µM.
